Results on twelve compounds are retold here after US10633419B2, “Immunomodulators” (BRISTOL-MYERS SQUIBB COMPANY, priority 2014, dated 2020).

Positions of bridges follow the written chain, without caps; N, C: chain ends. Non-standard residues stand in square brackets, D forms with d. Residues, ends and D or L forms follow the SMILES beside them. ξ: configuration not given here. *: point of attachment. εLys(α-Octadecanedioyl) = O=C(O)CCCCCCCCCCCCCCCCC(=O)N[C@@H](CCCCN*)C(=O)O; Dap(Nα-HOOC(CH2)16CO)OH = O=C(O)CCCCCCCCCCCCCCCCC(=O)N[C@@H](CN*)C(=O)O; X6 = O=C(O)CCCCCCCCCCCCCCCCC(=O)N[C@@H](CCC(=O)NCCCOCCOCCOCCCN*)C(=O)O; Trp(1-CH2COOH) = N[C@@H](Cc1cn(CC(=O)O)c2ccccc12)C(=O)O; ξPro(4R-OH) = O=C(O)C1C[C@@H](O)CN1; PEG6 = NCCOCCOCCOCCOCCOCCOCCC(=O)O; Hyp = O=C(O)[C@@H]1C[C@@H](O)CN1; NMeNle = CCCC[C@H](NC)C(=O)O; NMeA = CN[C@@H](C)C(=O)O; Dab = NCC[C@H](N)C(=O)O; Dap = NC[C@H](N)C(=O)O; Sar = CNCC(=O)O

In the first assay the target is T1, PD-L1 (Homo sapiens, UniProt Q9NZQ7).
T1 construct: hPDL1(19-239)-TVMV-His; made in house; host or cells: HEK293T
T1 sequence (Q9NZQ7 with tags, fused parts or gaps): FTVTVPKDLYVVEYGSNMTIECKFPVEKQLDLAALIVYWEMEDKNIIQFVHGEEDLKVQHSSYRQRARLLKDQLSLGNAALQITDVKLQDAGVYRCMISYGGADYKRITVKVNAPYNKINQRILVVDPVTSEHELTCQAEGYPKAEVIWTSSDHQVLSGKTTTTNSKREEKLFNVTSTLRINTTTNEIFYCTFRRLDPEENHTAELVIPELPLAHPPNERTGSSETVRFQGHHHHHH
Kind of assay: PD-1/PD-L1 Homogenous Time-Resolved Fluorescence (HTRF) binding assay (PD-1-Ig/PD-L1-His). The note with it: inhibition of PD-1-Ig binding to PD-L1-TVMV-His; value given as number; read-out: HTRF IC50. The procedure, abridged: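 HTRF competition in dPBS with 0.1% BSA and 0.05% Tween-20: 20 nM PD-1-Ig added after 15 min compound pre-incubation with 10 nM PD-L1-His, then another 15 min. Signal (665/620 nm) after 30 min with APC anti-His (20 nM) and Eu anti-Ig (1 nM).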
In general terms: In TR-FRET formats the signal depends on donor and acceptor labels being close together.
In the case of `CCCC[C@H]1C(=O)N(C)[C@@H](CCCC)C(=O)N[C@@H](CC(C)C)C(=O)N[C@H](C(=O)NCC(=O)N[C@@H](CC(=O)NCCCOCCOCCOCCCNC(=O)CC[C@H](NC(=O)CCCCCCCCCCCCCCCCC(=O)O)C(=O)O)C(=O)O)CSCC(=O)N[C@@H](Cc2ccc(O)cc2)C(=O)N(C)[C@@H](C)C(=O)N[C@@H](CC(N)=O)C(=O)N2CCC[C@H]2C(=O)N[C@@H](Cc2c[nH]cn2)C(=O)N[C@@H](CCC(=O)O)C(=O)N2C[C@H](O)C[C@H]2C(=O)N[C@@H](Cc2c[nH]c3ccccc23)C(=O)N[C@@H](CCN)C(=O)N[C@@H](Cc2cn(CC(=O)O)c3ccccc23)C(=O)N1C` [Example 11179] ({CH2CO}-Y[NMeA]NPHE[Hyp]W[Dab][Trp(1-CH2COOH)][NMeNle][NMeNle]LCGD(X6)-OH; thioether N-14), the IC50 (as a rule, the concentration that inhibits the measured activity by half) was determined as 0.003 µM.

Still in this assay, the particulars now being: inhibition of PD-1-Ig binding to PD-L1-TVMV-His; value given as range class; read-out: HTRF IC50.
In the case of `CCCC[C@H]1C(=O)N(C)[C@@H](CCCC)C(=O)N[C@@H](CC(C)C)C(=O)N[C@H](C(=O)NCC(=O)N[C@@H](CCC(=O)NC[C@H](NC(=O)CCCCCCCCCCCCCCCCC(=O)O)C(=O)O)C(=O)O)CSCC(=O)N[C@@H](Cc2ccc(O)cc2)C(=O)N(C)[C@@H](C)C(=O)N[C@@H](CC(N)=O)C(=O)N2CCC[C@H]2C(=O)N[C@@H](CN)C(=O)N[C@@H](CC(C)C)C(=O)N2C[C@H](O)C[C@H]2C(=O)N[C@@H](Cc2c[nH]c3ccccc23)C(=O)N[C@@H](CCN)C(=O)N[C@@H](Cc2cn(CC(=O)O)c3ccccc23)C(=O)N1C` [Example 11173] ({CH2CO}-Y[NMeA]NP[Dap]L[Hyp]W[Dab][Trp(1-CH2COOH)][NMeNle][NMeNle]LCGE(Dap(Nα-HOOC(CH2)16CO)OH)-OH; thioether N-14), the IC50 lay within 0.1 to 1.6 µM.
On the same count and under the same terms, for `CCCC[C@H]1C(=O)N(C)[C@@H](CCCC)C(=O)N[C@@H](CCC(=O)O)C(=O)N[C@H](C(=O)NCC(=O)N[C@@H](CC(=O)NCCCOCCOCCOCCCNC(=O)CC[C@H](NC(=O)CCCCCCCCCCCCCCCCC(=O)O)C(=O)O)C(=O)O)CSCC(=O)N[C@@H](Cc2ccc(O)cc2)C(=O)N(C)[C@@H](C)C(=O)N[C@@H](CC(=O)O)C(=O)N(C)CC(=O)N[C@@H](Cc2c[nH]cn2)C(=O)N[C@@H](CCCCN)C(=O)N2C[C@H](O)C[C@H]2C(=O)N[C@@H](Cc2c[nH]c3ccccc23)C(=O)N[C@@H](CCN)C(=O)N[C@@H](Cc2cn(CC(=O)O)c3ccccc23)C(=O)N1C` [Example 11174] ({CH2CO}-Y[NMeA]D[Sar]HK[Hyp]W[Dab][Trp(1-CH2COOH)][NMeNle][NMeNle]ECGD(X6)-OH; thioether N-14) the value was 0.01 to 0.099 µM.
On to `CCCC[C@H]1C(=O)N(C)[C@@H](CCCC)C(=O)N[C@@H](CC(C)C)C(=O)N[C@H](C(=O)NCC(=O)N[C@@H](CC(=O)NCCCC[C@H](NC(=O)CCCCCCCCCCCCCCCCC(=O)O)C(=O)O)C(=O)O)CSCC(=O)N[C@@H](Cc2ccc(O)cc2)C(=O)N(C)[C@@H](C)C(=O)N[C@@H](CC(N)=O)C(=O)N2CCC[C@H]2C(=O)N[C@@H](CN)C(=O)N[C@@H](CC(C)C)C(=O)N2C[C@H](O)C[C@H]2C(=O)N[C@@H](Cc2c[nH]c3ccccc23)C(=O)N[C@@H](CCN)C(=O)N[C@@H](Cc2cn(CC(=O)O)c3ccccc23)C(=O)N1C` [Example 11176] ({CH2CO}-Y[NMeA]NP[Dap]L[Hyp]W[Dab][Trp(1-CH2COOH)][NMeNle][NMeNle]LCGD(εLys(α-Octadecanedioyl))-OH; thioether N-14), for which the IC50 was 0.01 to 0.099 µM.
On to `CCCC[C@H]1C(=O)N(C)[C@@H](CCCC)C(=O)N[C@@H](CC(C)C)C(=O)N[C@H](C(=O)NCC(=O)N[C@@H](CCC(=O)NCCCC[C@H](NC(=O)CCCCCCCCCCCCCCCCC(=O)O)C(=O)O)C(=O)O)CSCC(=O)N[C@@H](Cc2ccc(O)cc2)C(=O)N(C)[C@@H](C)C(=O)N[C@@H](CC(N)=O)C(=O)N2CCC[C@H]2C(=O)N[C@@H](CN)C(=O)N[C@@H](CC(C)C)C(=O)N2C[C@H](O)C[C@H]2C(=O)N[C@@H](Cc2c[nH]c3ccccc23)C(=O)N[C@@H](CCN)C(=O)N[C@@H](Cc2cn(CC(=O)O)c3ccccc23)C(=O)N1C` [Example 11177] ({CH2CO}-Y[NMeA]NP[Dap]L[Hyp]W[Dab][Trp(1-CH2COOH)][NMeNle][NMeNle]LCGE(εLys(α-Octadecanedioyl))-OH; thioether N-14), for which the IC50 fell in the range of 0.1 to 1.6 µM.
Take `CCCC[C@H]1C(=O)N(C)[C@@H](CCCC)C(=O)N[C@@H](CC(C)C)C(=O)N[C@H](C(=O)NCC(=O)N[C@@H](CC(=O)NCCCOCCOCCOCCCNC(=O)CC[C@H](NC(=O)CCCCCCCCCCCCCCCCC(=O)O)C(=O)O)C(=O)O)CSCC(=O)N[C@@H](Cc2ccc(O)cc2)C(=O)N(C)[C@@H](C)C(=O)N[C@@H](CC(=O)O)C(=O)N2CCC[C@H]2C(=O)N[C@@H](CN)C(=O)N[C@@H](CCC(=O)O)C(=O)N2C[C@H](O)C[C@H]2C(=O)N[C@@H](Cc2c[nH]c3ccccc23)C(=O)N[C@@H](CCN)C(=O)N[C@@H](Cc2cn(CC(=O)O)c3ccccc23)C(=O)N1C` [Example 11178] ({CH2CO}-Y[NMeA]DP[Dap]E[Hyp]W[Dab][Trp(1-CH2COOH)][NMeNle][NMeNle]LCGD(X6)-OH; thioether N-14): the IC50 lay in the range of 0.0003 to 0.0099 µM.
The same measure, in the same setting: for `CCCC[C@H]1C(=O)N(C)[C@@H](CCCC)C(=O)N[C@@H](CC(C)C)C(=O)N[C@H](C(=O)NCCOCCOCCOCCOCCOCCOCCC(=O)NC[C@H](NC(=O)CCCCCCCCCCCCCCCCC(=O)O)C(=O)O)CSCC(=O)N[C@@H](Cc2ccc(O)cc2)C(=O)N(C)[C@@H](C)C(=O)N[C@@H](CC(N)=O)C(=O)N2CCC[C@H]2C(=O)N[C@@H](CN)C(=O)N[C@@H](CC(C)C)C(=O)N2C[C@H](O)C[C@H]2C(=O)N[C@@H](Cc2c[nH]c3ccccc23)C(=O)N[C@@H](CCN)C(=O)N[C@@H](Cc2cn(CC(=O)O)c3ccccc23)C(=O)N1C` [Example 11180] ({CH2CO}-Y[NMeA]NP[Dap]L[Hyp]W[Dab][Trp(1-CH2COOH)][NMeNle][NMeNle]LC[PEG6]-{Dap(Nα-HOOC(CH2)16CO)OH}; thioether N-14) the value was 0.01 to 0.099 µM; for `CCCC[C@H]1C(=O)N(C)[C@@H](CCCC)C(=O)N[C@@H](CC(C)C)C(=O)N[C@H](C(=O)NCC(=O)N[C@@H](CC(=O)O)C(=O)NCCOCCOCCOCCOCCOCCOCCC(=O)NC[C@H](NC(=O)CCCCCCCCCCCCCCCCC(=O)O)C(=O)O)CSCC(=O)N[C@@H](Cc2ccc(O)cc2)C(=O)N(C)[C@@H](C)C(=O)N[C@@H](CC(N)=O)C(=O)N2CCC[C@H]2C(=O)N[C@@H](CN)C(=O)N[C@@H](CC(C)C)C(=O)N2C[C@H](O)C[C@H]2C(=O)N[C@@H](Cc2c[nH]c3ccccc23)C(=O)N[C@@H](CCN)C(=O)N[C@@H](Cc2cn(CC(=O)O)c3ccccc23)C(=O)N1C` [Example 11181] ({CH2CO}-Y[NMeA]NP[Dap]L[Hyp]W[Dab][Trp(1-CH2COOH)][NMeNle][NMeNle]LCGD[PEG6]-{Dap(Nα-HOOC(CH2)16CO)OH}; thioether N-14), 0.1 to 1.6 µM; for `CCCC[C@H]1C(=O)N(C)[C@@H](CCCC)C(=O)N[C@@H](CC(C)C)C(=O)N[C@H](C(=O)NCC(=O)N[C@@H](CCC(=O)O)C(=O)NCCOCCOCCOCCOCCOCCOCCC(=O)NC[C@H](NC(=O)CCCCCCCCCCCCCCCCC(=O)O)C(=O)O)CSCC(=O)N[C@@H](Cc2ccc(O)cc2)C(=O)N(C)[C@@H](C)C(=O)N[C@@H](CC(N)=O)C(=O)N2CCC[C@H]2C(=O)N[C@@H](CN)C(=O)N[C@@H](CC(C)C)C(=O)N2C[C@H](O)CC2C(=O)N[C@@H](Cc2c[nH]c3ccccc23)C(=O)N[C@@H](CCN)C(=O)N[C@@H](Cc2cn(CC(=O)O)c3ccccc23)C(=O)N1C` (stereo partly drawn) [Example 11182] ({CH2CO}-Y[NMeA]NP[Dap]L[ξPro(4R-OH)]W[Dab][Trp(1-CH2COOH)][NMeNle][NMeNle]LCGE[PEG6]-{Dap(Nα-HOOC(CH2)16CO)OH}; thioether N-14), 0.1 to 1.6 µM.
On to `C=C1N[C@@H](Cc2c[nH]c3ccccc23)C(=O)N[C@@H](CCN)C(=O)N[C@@H](Cc2cn(CC(=O)O)c3ccccc23)C(=O)N(C)[C@@H](CCCC)C(=O)N(C)[C@@H](CCCC)C(=O)N[C@@H](CC(C)C)C(=O)N[C@H](C(=O)NCC(=O)N[C@@H](CC(=O)NCCOCCOCCOCCOCCOCCOCCC(=O)NC[C@H](NC(=O)CCCCCCCCCCCCCCCCC(=O)O)C(=O)O)C(=O)O)CSCC(=O)N[C@@H](Cc2ccc(O)cc2)C(=O)N(C)[C@@H](C)C(=O)N[C@@H](CC(N)=O)C(=O)N2CCC[C@H]2C(=O)N[C@@H](CN)C(=O)N[C@@H](CC(C)C)C(=O)N2C[C@H](O)C[C@@]12O` [Example 11183], for which the IC50 lay within 0.1 to 1.6 µM.
The same measure, in the same setting: for `CCCC[C@H]1C(=O)N(C)[C@@H](CCCC)C(=O)N[C@@H](CC(C)C)C(=O)C[C@H](C(=O)NCC(=O)N[C@@H](CCC(=O)O)C(=O)NCCCOCCOCCOCCCNC(=O)CC[C@H](NC(=O)CCCCCCCCCCCCCCC(=O)O)C(=O)O)CSCC(=O)N[C@@H](Cc2ccc(O)cc2)C(=O)N(C)[C@@H](C)C(=O)N[C@@H](CC(N)=O)C(=O)N2CCC[C@H]2C(=O)N[C@@H](CN)C(=O)N[C@@H](CC(C)C)C(=O)N2C[C@H](O)C[C@H]2C(=O)N[C@@H](Cc2c[nH]c3ccccc23)C(=O)N[C@@H](CCN)C(=O)N[C@@H](Cc2cn(CC(=O)O)c3ccccc23)C(=O)N1C` [Example 11184] the value was 0.01 to 0.099 µM; for `CCCC[C@H]1C(=O)N(C)[C@@H](CCCC)C(=O)N[C@@H](CC(C)C)C(=O)C[C@H](C(=O)NCC(=O)N[C@@H](CC(=O)O)C(=O)NC[C@H](NC(=O)CCCCCCCCCCCCCCCCC(=O)O)C(=O)O)CSCC(=O)N[C@@H](Cc2ccc(O)cc2)C(=O)N(C)[C@@H](C)C(=O)N[C@@H](CC(N)=O)C(=O)N2CCC[C@H]2C(=O)N[C@@H](CN)C(=O)N[C@@H](CC(C)C)C(=O)N2C[C@H](O)C[C@H]2C(=O)N[C@@H](Cc2c[nH]c3ccccc23)C(=O)N[C@@H](CCN)C(=O)N[C@@H](Cc2cn(CC(=O)O)c3ccccc23)C(=O)N1C` [Example 11185], 0.01 to 0.099 µM.
